This passage reports IC50 results from patent US20250215029A1 (Recludix Pharma, Inc., priority 2022, published 2025).

T1 sequence (P40763 whole entry): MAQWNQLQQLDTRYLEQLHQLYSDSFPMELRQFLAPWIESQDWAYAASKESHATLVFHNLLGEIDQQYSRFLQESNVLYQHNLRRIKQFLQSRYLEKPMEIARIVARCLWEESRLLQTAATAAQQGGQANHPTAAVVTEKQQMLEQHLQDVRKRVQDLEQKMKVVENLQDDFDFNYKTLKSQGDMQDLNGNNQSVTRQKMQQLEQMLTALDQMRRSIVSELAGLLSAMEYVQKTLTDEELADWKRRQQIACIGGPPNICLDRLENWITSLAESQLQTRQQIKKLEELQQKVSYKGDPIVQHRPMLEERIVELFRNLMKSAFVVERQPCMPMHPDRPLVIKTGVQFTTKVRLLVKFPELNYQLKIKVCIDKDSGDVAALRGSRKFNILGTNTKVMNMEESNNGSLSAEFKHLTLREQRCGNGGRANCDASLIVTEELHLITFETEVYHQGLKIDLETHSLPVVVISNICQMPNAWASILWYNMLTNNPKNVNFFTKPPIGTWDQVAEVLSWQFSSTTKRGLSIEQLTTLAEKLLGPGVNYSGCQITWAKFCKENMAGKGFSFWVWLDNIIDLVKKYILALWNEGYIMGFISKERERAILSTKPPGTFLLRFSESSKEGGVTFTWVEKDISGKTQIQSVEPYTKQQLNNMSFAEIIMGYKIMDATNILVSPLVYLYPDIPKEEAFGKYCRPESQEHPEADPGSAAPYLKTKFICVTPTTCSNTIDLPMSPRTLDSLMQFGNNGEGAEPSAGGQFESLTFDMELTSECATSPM

One assay has as its target T1, pY705-STAT3 in PBMC (Homo sapiens, UniProt P40763).
T1 construct: Cryopreserved Peripheral Blood Mononuclear Cells (PBMC) are from AllCells; host or cells: cryopreserved PBMC
Description: MSD-pSTAT-PBMC Assay (pSTAT3, IL-6 stimulated). The format is cell-based. To be noted: PBMC, compound 3 hrs, then 10 ng/mL IL-6 for 10 min; Table 115; read-out: STAT3. In outline: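 Cells are preincubated with compound for 3 hrs, then stimulated for 10 min, IL-4 at 1 ng/mL driving STAT6 phosphorylation and IL-6 at 10 ng/mL driving STAT3. Phospho-STAT in lysates is quantified by MSD immunoassay, and IC50 is fitted after subtracting unstimulated wells.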
For `CCCOC(=O)[C@H](C)NP(=O)(Cc1ccc2sc(C(=O)N[C@H]3C[C@H](C)C[C@H]4CC[C@@H](C(=O)N5CC(c6cnccc6C)C5)N4C3=O)cc2c1)Oc1ccccc1` (stereo partly drawn) [Compound 283, propyl (((2-(((3S,6S,8S,9aR)-8-methyl-3-(3-(4-methylpyridin-3-yl)azetidine-1-carbonyl)-5-oxooctahydro-1H-pyrrolo[1,2-a]azepin-6-yl)carbamoyl)benzo [b]thiophen-5-yl)methyl)(phenoxy)phosphoryl)-L-alaninate], the IC50 was under 100 nM.
Regarding `CCCCOC(=O)[C@H](C)N(C)P(=O)(Oc1ccccc1)C(F)(F)c1ccc2sc(C(=O)N[C@H]3CCC[C@H]4CC[C@@H](C(=O)N5CC(c6cccnc6)C5)N4C3=O)cc2c1` (stereo partly drawn) [Compound 285, butyl N-((difluoro(2-(((3S,6S,9aS)-5-oxo-3-(3-(pyridin-3-yl)azetidine-1-carbonyl)octahydro-1H-pyrrolo[1,2-a]azepin-6-yl)carbamoyl)benzo [b]thiophen-5-yl)methyl)(phenoxy)phosphoryl)-N-methyl-L-alaninate], the IC50 was over 3000 nM.
For the compound `CCCOC(=O)[C@H](C)NP(=O)(Cc1ccc2sc(C(=O)N[C@H]3CC[C@H](C)C[C@H]4CC[C@@H](C(=O)N5CC(c6cnccc6C)C5)N4C3=O)cc2c1)Oc1ccccc1` (stereo partly drawn) [Compound 286, propyl (((2-(((3S,6S,9S,10aR)-9-methyl-3-(3-(4-methylpyridin-3-yl)azetidine-1-carbonyl)-5-oxodecahydropyrrolo [1,2-a]azocin-6-yl)carbamoyl)benzo [b]thiophen-5-yl)methyl)(phenoxy)phosphoryl)-L-alaninate], the IC50 is under 100 nM.
Still for that read-out and setting: the result for `CCCOC(=O)[C@H](C)NP(=O)(Cc1ccc2sc(C(=O)N[C@H]3CC[C@@H](C)C[C@H]4CC[C@@H](C(=O)N5CC(c6cnccc6C)C5)N4C3=O)cc2c1)Oc1ccccc1` (stereo partly drawn) [Compound 287, propyl (((2-(((3S,6S,9R,10aR)-9-methyl-3-(3-(4-methylpyridin-3-yl)azetidine-1-carbonyl)-5-oxodecahydropyrrolo [1,2-a]azocin-6-yl)carbamoyl)benzo [b]thiophen-5-yl)methyl)(phenoxy)phosphoryl)-L-alaninate] reads under 100 nM; that for `CCCCOC(=O)[C@H](C)NP(=O)(Cc1ccc2sc(C(=O)N[C@H]3CCC[C@H]4CC[C@@H](C(=O)N5CC(c6ncccc6C)C5)N4C3=O)cc2c1)Oc1ccccc1` (stereo partly drawn) [Compound 288, butyl (((2-(((3S,6S,9aS)-3-(3-(3-methylpyridin-2-yl)azetidine-1-carbonyl)-5-oxooctahydro-1H-pyrrolo[1,2-a]azepin-6-yl)carbamoyl)benzo [b]thiophen-5-yl)methyl)(phenoxy)phosphoryl)-L-alaninate], 100 to 1000 nM; that for `CCCOC(=O)[C@H](C)NP(=O)(Cc1ccc2sc(C(=O)N[C@H]3CCC[C@H]4CC[C@@H](C(=O)N5CC(c6cccc(C#N)n6)C5)N4C3=O)cc2c1)Oc1ccccc1` (stereo partly drawn) [Compound 289, propyl (((2-(((3S,6S,9aS)-3-(3-(6-cyanopyridin-2-yl)azetidine-1-carbonyl)-5-oxooctahydro-1H-pyrrolo[1,2-a]azepin-6-yl)carbamoyl)benzo [b]thiophen-5-yl)methyl)(phenoxy)phosphoryl)-L-alaninate], under 100 nM.
For `CCCOC(=O)[C@H](C)NP(=O)(Cc1ccc2sc(C(=O)N[C@H]3CCC[C@H]4CC[C@@H](C(=O)N5CC(c6nccc(C#N)n6)C5)N4C3=O)cc2c1)Oc1ccccc1` (stereo partly drawn) [Compound 290, propyl (((2-(((3S,6S,9aS)-3-(3-(4-cyanopyrimidin-2-yl)azetidine-1-carbonyl)-5-oxooctahydro-1H-pyrrolo[1,2-a]azepin-6-yl)carbamoyl)benzo [b]thiophen-5-yl)methyl)(phenoxy)phosphoryl)-L-alaninate], the IC50 lay in the range of 100 to 1000 nM.
The same measure, in the same setting: then `C[C@H](NP(=O)(Cc1ccc2sc(C(=O)N[C@H]3CCC[C@H]4CC[C@@H](C(=O)N5CC(c6cccnc6)C5)N4C3=O)cc2c1)Oc1ccccc1)C(=O)OCCC(F)(F)F` (stereo partly drawn) [Compound 291, 3,3,3-trifluoropropyl (((2-(((3S,6S,9aS)-5-oxo-3-(3-(pyridin-3-yl)azetidine-1-carbonyl)octahydro-1H-pyrrolo[1,2-a]azepin-6-yl)carbamoyl)benzo [b]thiophen-5-yl)methyl)(phenoxy)phosphoryl)-L-alaninate], with under 100 nM.
For `CCCOC(=O)[C@H](C)NP(=O)(Cc1ccc2sc(C(=O)N[C@H]3CCC[C@H]4CC[C@@H](C(=O)N5CC(c6cccnc6)C5)N4C3=O)cc2c1)Oc1c(C)cccc1C` (stereo partly drawn) [Compound 293, propyl ((2,6-dimethylphenoxy) ((2-(((3S,6S,9aS)-5-oxo-3-(3-(pyridin-3-yl)azetidine-1-carbonyl)octahydro-1H-pyrrolo[1,2-a]azepin-6-yl)carbamoyl)benzo [b]thiophen-5-yl)methyl)phosphoryl)-L-alaninate], the IC50 is under 100 nM.
As for `CCCOC(=O)C(C)CNP(=O)(Cc1ccc2sc(C(=O)N[C@H]3CCC[C@H]4CC[C@@H](C(=O)N5CC(c6cccnc6)C5)N4C3=O)cc2c1)Oc1ccccc1` (stereo partly drawn) [Compound 294, propyl 2-methyl-3-((((2-(((3S,6S,9aS)-5-oxo-3-(3-(pyridin-3-yl)azetidine-1-carbonyl)octahydro-1H-pyrrolo[1,2-a]azepin-6-yl)carbamoyl)benzo [b]thiophen-5-yl)methyl)(phenoxy)phosphoryl)amino) propanoate], the IC50 lay within 1000 to 3000 nM.
Consider `CCCOC(=O)[C@H](CC)NP(=O)(Cc1ccc2sc(C(=O)N[C@H]3CCC[C@H]4CC[C@@H](C(=O)N5CC(c6cccnc6)C5)N4C3=O)cc2c1)Oc1ccccc1` (stereo partly drawn) [Compound 296, propyl (2S)-2-((((2-(((3S,6S,9aS)-5-oxo-3-(3-(pyridin-3-yl)azetidine-1-carbonyl)octahydro-1H-pyrrolo[1,2-a]azepin-6-yl)carbamoyl)benzo [b]thiophen-5-yl)methyl)(phenoxy)phosphoryl)amino) butanoate], for which the IC50 is under 100 nM.
Consider `Cc1ccncc1C1CN(C(=O)[C@@H]2CC[C@@H]3CCC[C@H](NC(=O)c4cc5cc(C(F)(F)P(=O)(N[C@@H](C)C(=O)OCc6ccccc6)Oc6ccccc6)ccc5s4)C(=O)N32)C1` (stereo partly drawn) [Compound 297, benzyl ((difluoro(2-(((3S,6S,9aS)-3-(3-(4-methylpyridin-3-yl)azetidine-1-carbonyl)-5-oxooctahydro-1H-pyrrolo[1,2-a]azepin-6-yl)carbamoyl)benzo [b]thiophen-5-yl)methyl)(phenoxy)phosphoryl)-L-alaninate], for which the IC50 fell in the range of 100 to 1000 nM.
The same measure, in the same setting: then `Cc1ccncc1C1CN(C(=O)[C@@H]2CC[C@@H]3CCC[C@H](NC(=O)c4cc5cc(CP(=O)(N[C@@H](C)C(=O)OC(C)C)Oc6ccccc6)ccc5s4)C(=O)N32)C1` (stereo partly drawn) [Compound 298, isopropyl (((2-(((3S,6S,9aS)-3-(3-(4-methylpyridin-3-yl)azetidine-1-carbonyl)-5-oxooctahydro-1H-pyrrolo[1,2-a]azepin-6-yl)carbamoyl)benzo [b]thiophen-5-yl)methyl)(phenoxy)phosphoryl)-L-alaninate], with 100 to 1000 nM.
In the case of `CCCOC(=O)[C@H](C)NP(=O)(Cc1ccc2sc(C(=O)N[C@H]3CCC[C@H]4CC[C@@H](C(=O)N5CC(c6cnccc6N6CC(OC)C6)C5)N4C3=O)cc2c1)Oc1ccccc1` (stereo partly drawn) [Compound 300, propyl (((2-(((3S,6S,9aS)-3-(3-(4-(3-methoxyazetidin-1-yl)pyridin-3-yl)azetidine-1-carbonyl)-5-oxooctahydro-1H-pyrrolo[1,2-aJazepin-6-yl)carbamoyl)benzo [b]thiophen-5-yl)methyl)(phenoxy)phosphoryl)-L-alaninate], the IC50 is under 100 nM.
On the same count and under the same terms, then `CCCOC(=O)[C@H](C)NP(=O)(Cc1ccc2sc(C(=O)N[C@H]3CCC[C@H]4CC[C@@H](C(=O)N5CC(c6cnccc6N6CC[C@H]6COC)C5)N4C3=O)cc2c1)Oc1ccccc1` (stereo partly drawn) [Compound 301, propyl (((2-(((3S,6S,9aS)-3-(3-(4-((S)-2-(methoxymethyl)azetidin-1-yl)pyridin-3-yl)azetidine-1-carbonyl)-5-oxooctahydro-1H-pyrrolo[1,2-a]azepin-6-yl)carbamoyl)benzo [b]thiophen-5-yl)methyl)(phenoxy)phosphoryl)-L-alaninate], with under 100 nM; and `CCCOC(=O)[C@H](C)NP(=O)(Oc1ccccc1)C(F)(F)c1ccc2sc(C(=O)N[C@H]3CCC[C@H]4CC[C@@H](C(=O)N5CC(c6cccnc6)C5)N4C3=O)cc2c1` (stereo partly drawn) [Compound 306, propyl ((difluoro(2-(((3S,6S,9aS)-5-oxo-3-(3-(pyridin-3-yl)azetidine-1-carbonyl)octahydro-1H-pyrrolo[1,2-a]azepin-6-yl)carbamoyl)benzo [b]thiophen-5-yl)methyl)(phenoxy)phosphoryl)-L-alaninate], with 1000 to 3000 nM; and `CCCOC(=O)[C@H](C)NP(=O)(Cc1ccc2sc(C(=O)N[C@H]3CCC[C@H]4CC[C@@H](C(=O)N5CC(c6cccnc6)C5)N4C3=O)cc2c1)Oc1ccccc1` (stereo partly drawn) [Compound 307, propyl (((2-(((3S,6S,9aS)-5-oxo-3-(3-(pyridin-3-yl)azetidine-1-carbonyl)octahydro-1H-pyrrolo[1,2-a]azepin-6-yl)carbamoyl)benzo [b]thiophen-5-yl)methyl)(phenoxy)phosphoryl)-L-alaninate], with over 3000 nM.

Still in this assay, the particulars now being: STAT3, PBMC, compound 3 hrs, then 10 ng/mL IL-6 for 10 min; Table 115.
As to `CCCCOC(=O)[C@@H]1CC(F)(F)CN1P(=O)(Cc1ccc2sc(C(=O)N[C@H]3CCC[C@H]4CC[C@@H](C(=O)N5CC(c6cccnc6)C5)N4C3=O)cc2c1)Oc1ccccc1` (stereo partly drawn) [Compound 295, butyl (2S)-4,4-difluoro-1-(((2-(((3S,6S,9aS)-5-oxo-3-(3-(pyridin-3-yl)azetidine-1-carbonyl)octahydro-1H-pyrrolo[1,2-a]azepin-6-yl)carbamoyl)benzo [b]thiophen-5-yl)methyl)(phenoxy)phosphoryl) pyrrolidine-2-carboxylate], the IC50 was in the range of 1000 to 3000 nM.
